Where “and” joins values, the source holds several entries; their conditions need not be identical. Equal values may be shown once.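 Each compound was tested at five concentrations against cells in 96-well plates for 48 hours. GI50: concentration for 50% inhibition of growth. TGI denotes the concentration required for complete inhibition of growth.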
How the values were obtained:
Assay in all cases: DTP human tumour cell line panel, 48 h
BT-549 breast = system: BT-549 breast
DU-145 prostate = system: DU-145 prostate
HL-60(TB) leukemia = system: HL-60(TB) leukemia
NCI/ADR-RES ovarian = system: NCI/ADR-RES ovarian
OVCAR-8 ovarian = system: OVCAR-8 ovarian
SF-268 CNS = system: SF-268 CNS
SF-539 CNS = system: SF-539 CNS
SK-MEL-28 melanoma = system: SK-MEL-28 melanoma
SR leukemia = system: SR leukemia
NCI-H522 lung = system: NCI-H522 lung

Compound	TGI (BT-549 breast) [µM]	TGI (DU-145 prostate) [µM]	TGI (HL-60(TB) leukemia)	TGI (NCI/ADR-RES ovarian) [µM]	TGI (OVCAR-8 ovarian)	TGI (SF-268 CNS) [µM]	TGI (SF-539 CNS)	TGI (SK-MEL-28 melanoma)	TGI (SR leukemia)	TGI (NCI-H522 lung) [µM]	GI50 (DU-145 prostate) [µM]	GI50 (HL-60(TB) leukemia)	GI50 (SF-268 CNS) [µM]	GI50 (BT-549 breast) [µM]	GI50 (SF-539 CNS) [µM]	GI50 (SK-MEL-28 melanoma) [µM]	GI50 (NCI-H522 lung) [µM]	GI50 (NCI/ADR-RES ovarian) [µM]	GI50 (OVCAR-8 ovarian) [µM]
CC1(C23CC4CC(CC(C4)C2)C3)n2c(=O)n(-c3ccccc3)c(=O)n2C1(C)C12CC3CC(CC(C3)C1)C2 (stereo not given)	> 100	> 100	> 100 µM	> 100	> 100 µM	> 100	> 100 µM	> 100 µM	> 100 µM										
Cc1[nH]c(=O)nc(N/N=C/c2ccc(Cl)cc2)c1C(=O)NC(C)(CO)CO	> 100	> 100	> 100 µM	> 100	> 100 µM	> 100		> 100 µM	> 100 µM										
COc1ccc2nc3ccc(OC)cc3c(S(=O)(=O)Cc3ccc([N+](=O)[O-])cc3)c2c1		> 100	> 100 µM	> 100	> 100 µM	> 100	> 100 µM	> 100 µM	> 100 µM	> 100									
COc1cc(C2C(Cl)C(=O)N2NC(=O)c2ccccc2O)ccc1O (stereo not given)			> 100 µM		> 100 µM	> 100	> 100 µM	> 100 µM		> 100									
CC(=O)C(=[N+]=[N-])C(=O)OC(C)(C)C#N	> 10	> 10	> 10 µM	> 10	> 10 µM	> 10	> 10 µM	> 10 µM	> 10 µM										
CN1C2CC(=O)CC1[C@H](O)[C@@H]2O	> 100	> 100	> 100 µM	> 100	> 100 µM	> 100		> 100 µM	> 100 µM										
COc1cc2c(c(C)c1O)[C@H]1COc3ccccc3[C@H]1O2			12.7 µM		67.3 µM	96.1	36.7 µM	> 100 µM		13.5									
CCCn1c(SCC)c2ccccc2c1-c1nc(F)nc(F)n1			> 100 µM			> 100	> 100 µM	> 100 µM	> 100 µM	> 100									
O=C1C(CN2CCCCC2)CCCC1CN1CCCCC1 (stereo not given)	30.9	32.2	39.3 µM and > 63.1 µM	55.9	21 µM and 39.3 µM	> 100	> 57.5 µM and 47.8 µM	18.4 µM and 31.7 µM	43.9 µM and 47.2 µM		0.059	19 µM and 8.6 µM	> 89.2						
CCCCC(=O)Nc1ccc2cc(C(=O)OC)c(ON3C(=O)c4ccccc4C3=O)nc2n1	> 100			> 100	58.4 µM	81.2	43.5 µM	53.5 µM	> 100 µM	58.5									
NCCCNc1nc2ccccc2c2c(=O)c3cc(C(F)(F)F)ccc3sc12	27.1	3.26					3.16 µM	3.23 µM			1.82			7.3	1.71	1.81			
CCCc1c(OC)c(=O)c2c(OC)cc(OC)c3c4c(OC)cc(OC)c5c(=O)c(OC)c(CCC)c(c1c23)c54	31.4	24.6	10.4 µM	47.4	40.8 µM	41.5	30.9 µM	26.2 µM											
CCOC(=O)c1csc(NC(=O)CCN2CCCCC2)n1		> 100	> 100 µM	> 100	> 100 µM		> 100 µM	> 100 µM	> 100 µM										
O=C(/C=C/c1ccc(Cl)cc1)Oc1ccc(/C=C2\CCCCC2=O)cc1		> 100	> 100 µM		> 100 µM	> 100	> 100 µM	> 100 µM	> 100 µM	> 100									
CC1(C)CC[C@]2(C)CC=C3[C@]4(C)CC[C@H]5C(C)(C)C(=O)CC[C@]5(C)[C@H]4CC[C@@]3(C)[C@H]2C1		> 100		> 100	> 100 µM	> 100	> 100 µM	> 100 µM	> 100 µM	> 100									
COC(=O)C(CCCC1(c2ccccc2)OCCO1)C(C)=O (stereo not given)			> 100 µM		> 100 µM	> 100	> 100 µM	> 100 µM	> 100 µM	> 100									
COCC1CCCN1c1ccc(/C=C(/C#N)C(N)=S)cc1 (stereo not given)	> 100	> 100	> 100 µM	> 100	> 100 µM	> 100	> 100 µM	> 100 µM		61.4	> 100	> 100 µM	> 100	> 100	> 100	> 100	12.7	> 100	> 100
O=P(Oc1ccccc1)(Oc1ccccc1)Oc1c[nH]c2ccccc12	34.4	> 100	44.1 µM	18	47.5 µM	24.3	24 µM	26.6 µM	> 100 µM										
CSc1nc(-c2cc3c(c(SC)n2)CCCCC3)cc2c1CCCCC2	> 100	> 100	> 100 µM	> 100	> 100 µM	> 100	> 100 µM	> 100 µM		90.2									
CC1OC(OC2C(O[C@H]3CC[C@@]4(C)[C@@H](CC[C@@H]5[C@@H]4CC[C@]4(C)[C@@H]6[C@H](C[C@@H]54)O[C@]4(CC[C@@H](C)CO4)[C@H]6C)C3)OC(CO)C(OC3OC(CO)C(O)C(OC4OCC(O)C(O)C4O)C3OC3OCC(O)C(O)C3O)C2O)C(O)C(O)C1O (stereo not given in full)	2.36	2.73	1.01 µM	3.13	3.25 µM	3.37	1.25 µM	2.04 µM											
Clc1ccc(Oc2ccc(N=Cc3ccc(Cl)cc3Cl)cc2Cl)cc1	93.1	> 100	57.6 µM	84.9	> 100 µM	> 100	65.1 µM	> 100 µM		92									
CCCCCNc1nonc1N		> 100		> 100	> 100 µM	> 100	> 100 µM	> 100 µM	> 100 µM	> 100									
COC1=CC(=O)[C@H]2[C@H](C)C(c3ccccc3)[C@@]2(C)C1=O (stereo not given in full)			> 100 µM		> 100 µM	> 100	> 100 µM	> 100 µM	> 100 µM	> 100									

From PubChem BioAssay (NCI)
